Experiments:
Type in all cases: biochemical
[1] = test system: N-acetyl-(R)-β-amino acid acylase derived from Burkholderia sp. AJ110349 (JM109/ptrp4_3BR cell-free extract); experiment: Substrate specificity and optical selectivity with cell-free extract of JM109/ptrp4_3BR; conditions: for Concentration of acetic acid detected: JM109/ptrp4_3BR 50 mU cell-free extract, 37° C.; for optical selectivity of β-amino acid produced (ee): after reacting for 24 hours; for optical selectivity of β-amino acid produced (ee) / β-amino acid enantiomer detected in the reaction solution: chiral HPLC; for β-amino acid enantiomer detected in the reaction solution: 24 hours (10 minutes for the 3,4-(—O—CH2—O—) substrate)
Description: (§1) An Astec Chirobiotec T (0.46 cm in diameter, 25 cm) column was employed. A 90 percent MeOH mobile phase was employed. The temperature was 40° C. and the flow rate was 0.4 mL/minute. Optical selectivity was determined based on comparison with various standard (R) and (S) standard products under UV detection conditions of 205 nm.
(§2) The column employed was comprised of an Inertsil ODS3 (0.46 cm in diameter, 5 cm) made by GL Science and a Chiralpak WH (0.46 cm in diameter, 25 cm) made by Daisel Chemical Industries, arranged consecutively in that order. The mobile phase was 1 mM CuSO4, 10 percent MeOH. The temperature was 50° C. and the flow rate was 1.0 mL/minute. Detection was conducted with a UV detector at 210 nm and optical selectivity was determined by comparison with standard (R) and (S) products.
(§3) JM109/ptrp4—3BR, JM109/pSFN—2BS, and JM109/pSFN—1VR were precultured for 16 hours at 37° C. in LB medium containing 100 mg/L of ampicillin. 1 mL quantity of the cultured bacterial cells was transplanted to 50 mL of TB medium containing 100 mg/L of ampicillin and cultured for 16 hours at 30° C. The bacterial cells obtained were centrifugally separated to concentrate the bacteria cells. The bacterial cells were washed with 50 mM Tris buffer solution (pH 7.6) and the same buffer solution was used to prepare a bacterial cell suspension. Ultrasonic rupturing was employed to rupture the bacterial cells. A supernatant solution obtained by centrifugal separation (15,000 g, 10 minutes, 4° C.) was employed as a cell-free extract, and substrate specificity for the various N-acetyl-(R,S)-β-amino acids described above in Embodiments 2-1 to 9 was examined.
(§4) After adjusting the enzymes by the above methods, their activity was measured. Activity producing 1 μmol of β-Phe per minute from N-acetyl-(R,S)-β-Phe was denoted as 1 U. In the various examination of substrate specificity, 50 mU cell-free extracts were employed. As a negative control, instead of the cell-free medium prepared as set forth above, a 50 mM Tris buffer solution (pH 7.6) that had been reacted with each of the substrates was employed as an “Enzyme-” test zone, and instead of the individual substrates, 50 mM Tris buffer solution (pH 7.6) that had been reacted with each of the cell-free extracts was employed as a “Substrate-” test zone.
(§5) 50 mM Tris-HCl (pH 7.6) and 0.2 percent of various N-acetyl-(R,S)-β-amino acids were reacted at 37° C. for 1 hour or 24 hours, and then processed for 10 minutes at 96° C. to stop the reactions. The quantity of acetic acid produced by the decomposition of acetyl groups was determined by the protocol of an acetic acid kit (Roche).
(§6) After reacting for 24 hours, the samples were analyzed with various chiral resolution columns to determine optical selectivity.
(§7) A 300 μL quantity of culture solution was washed with 50 mM Tris-HCl (pH 7.6), suspended in 300 μL of 50 mM Tris-HCl (pH 7.6), and subjected to ultrasonic rupturing to rupture the bacteria. A supernatant solution obtained by centrifugal separation (15,000 g, 10 minutes, 4° C.) was employed as cell-free extract in the reaction.
(§8) 50 mM Tris-HCl (pH 7.6) and 0.2 percent N-acetyl-(R,S)-3,4-(—O—CH2—O—)-β-phenylalanine were reacted for 10 minutes at 37° C. When 3,4-(—O—CH2—O—)-β-phenylalanine was quantized under the separation conditions of N-acetyl-β-Phe and β-Phe, the activity per mL of cell-free extract was 0.2 U for JM109/ptrp4—3BR, 3.9 U for JM109/pSFN—2BS, and 27.8 U for JM109/pSFN—1VR.
(§9) Various enzymes were prepared from the same bacterial cells and by the same methods as in 12-1, and 50 mU cell-free extracts were employed in the reaction. 50 mM Tris-HCl (pH 7.6) and 1 percent N-acetyl-(R,S)-β-3-Pyr-Ala were reacted for 1 hour at 37° C., after which the reaction was stopped by treatment at 70° C. for 10 minutes. The quantity of acetic acid generated by the decomposition of acetyl groups was determined by the protocol of an acetic acid kit (Roche).

[2] = test system: N-acetyl-(S)-β-amino acid acylase derived from Burkholderia sp. AJ110349 (JM109/pSFN_2BS cell-free extract); experiment: Substrate specificity and optical selectivity with cell-free extract of JM109/pSFN_2BS; conditions: for optical selectivity of β-amino acid produced (ee) / β-amino acid enantiomer detected in the reaction solution: JM109/pSFN-2BS, chiral HPLC; for optical selectivity of β-amino acid produced (ee): after reacting for 24 hours; for β-amino acid enantiomer detected in the reaction solution: 24 hours (10 minutes for the 3,4-(—O—CH2—O—) substrate); for Concentration of acetic acid detected: JM109/pSFN_2BS 50 mU cell-free extract, 37° C.
Description: as §1, §2, §3, §4, §5, §6, §7, §8, §9

[3] = test system: N-acetyl-(R)-β-amino acid acylase derived from Variovorax sp. AJ110348 (JM109/pSFN_1VR cell-free extract); experiment: Substrate specificity and optical selectivity with cell-free extract of JM109/pSFN_1VR; conditions: for Concentration of acetic acid detected: JM109/pSFN_1VR 50 mU cell-free extract, 37° C.; for optical selectivity of β-amino acid produced (ee): after reacting for 24 hours; for optical selectivity of β-amino acid produced (ee) / β-amino acid enantiomer detected in the reaction solution: chiral HPLC; for β-amino acid enantiomer detected in the reaction solution: 24 hours (10 minutes for the 3,4-(—O—CH2—O—) substrate)
Description: as §1, §2, §3, §4, §5, §6, §7, §8, §9

[4] = 0.2 percent substrate, 24 hours

| SMILES | Concentration of acetic acid detected ([1]; 0.2 percent substrate, 1 hour) [mM] | Concentration of acetic acid detected [1, 4] [mM] | optical selectivity of β-amino acid produced (ee) ([1]; JM109/ptrp4—3BR) [% ee] | β-amino acid enantiomer detected in the reaction solution ([1]; JM109/ptrp4—3BR) | optical selectivity of β-amino acid produced (ee) [2] [% ee] | β-amino acid enantiomer detected in the reaction solution [2] | Concentration of acetic acid detected ([2]; 0.2 percent substrate, 1 hour) [mM] | Concentration of acetic acid detected [2, 4] [mM] | Concentration of acetic acid detected ([3]; 0.2 percent substrate, 1 hour) [mM] | Concentration of acetic acid detected [3, 4] [mM] | optical selectivity of β-amino acid produced (ee) ([3]; JM109/pSFN—1VR) [% ee] | β-amino acid enantiomer detected in the reaction solution ([3]; JM109/pSFN—1VR) | activity per mL of cell-free extract ([1]; JM109/ptrp4—3BR, 0.2 percent substrate, 10 minutes at 37° C.) [U] | activity per mL of cell-free extract ([2]; JM109/pSFN—2BS, 0.2 percent substrate, 10 minutes at 37° C.) [U] | activity per mL of cell-free extract ([3]; JM109/pSFN—1VR, 0.2 percent substrate, 10 minutes at 37° C.) [U] | acetic acid detected ([1]; JM109/ptrp4—3BR 50 mU cell-free extract, 1 percent substrate, 1 hour at 37° C.) [mM] | acetic acid detected ([2]; JM109/pSFN—2BS 50 mU cell-free extract, 1 percent substrate, 1 hour at 37° C.) [mM] | acetic acid detected ([3]; JM109/pSFN—1VR 50 mU cell-free extract, 1 percent substrate, 1 hour at 37° C.) [mM] |
| --- | --- | --- | --- | --- | --- | --- | --- | --- | --- | --- | --- | --- | --- | --- | --- | --- | --- | --- |
| CC(=O)NC(CC(=O)O)c1ccc(F)cc1 (racemic) [N-Ac-β-4-F-Phe, N-acetyl-(R,S)-4-fluoro-β-Phe] | 4.6 | 5.4 | 94 | (R)-4-fluoro-β-Phe was detected | > 99 | (S)-4-fluoro-β-Phe was detected | 5.2 | 5.1 | 4.6 | 4.7 | > 99 | (R)-4-fluoro-β-Phe was detected | – | – | – | – | – | – |
| CC(=O)NC(C)CC(=O)O (racemic) [N-Ac-β-Aba, N-acetyl-(R,S)-β-aminobutyric acid] | 0.1 | 0.6 | – | – | – | – | 0.1 | 0.3 | 0.0 | 0.1 | – | – | – | – | – | – | – | – |
| CC(=O)NC(CC(=O)O)C(C)C (racemic) [N-Ac-β-Leu, N-acetyl-(R,S)-β-Leu] | 0.2 | 5.6 | > 99 | (R)-β-Leu was detected | > 99 | (S)-β-Leu was detected | 1.6 | 6.2 | 0.0 | 1.0 | > 99 | (R)-β-Leu was detected | – | – | – | – | – | – |
| CC(=O)NC(CC(=O)O)c1ccccc1 (racemic) [N-Ac-β-Phe, N-acetyl-(R,S)-β-Phe] | 5.0 | – | – | – | – | – | 5.3 | – | 5.2 | – | – | – | – | – | – | – | – | – |
| CC(=O)NC(CC(=O)O)c1ccc(O)cc1 (racemic) [N-Ac-β-Tyr, N-acetyl-(R,S)-β-Tyr] | 4.5 | 4.9 | 61 | (R)-β-Tyr was detected | > 99 | (S)-β-Tyr was detected | 5.2 | 5.2 | 5.1 | 4.6 | > 99 | (R)-β-Tyr was detected | – | – | – | – | – | – |
| CC(=O)NC(CC(=O)O)CC(C)C (racemic) [N-Ac-β-homoLeu, N-acetyl-(R,S)-β-homoLeu] | 3.0 | 7.5 | 69 | (S)-β-homoLeu was detected | > 99 | (R)-β-homoLeu was detected | 1.2 | 5.4 | 0.0 | 0.6 | > 99 | (S)-β-homoLeu was detected | – | – | – | – | – | – |
| CC(=O)NC(CC(=O)O)Cc1ccccc1 (racemic) [N-Ac-β-homoPhe, N-acetyl-(R,S)-β-homoPhe] | 1.6 | 3.7 | 98 | (S)-β-homoPhe was detected | > 99 | (R)-β-homoPhe was detected | 0.5 | 4.0 | 0.1 | 2.6 | > 99 | (S)-β-homoPhe was detected | – | – | – | – | – | – |
| CC(=O)NC(CC(=O)O)c1ccc2c(c1)OCO2 (racemic) [N-acetyl-(R,S)-3,4-(—O—CH2—O—)-β-phenylalanine] | – | – | – | (R)-3,4-(—O—CH2—O—)-β-phenylalanine was detected | – | (S)-3,4-(—O—CH2—O—)-β-phenylalanine was detected | – | – | – | – | – | (R)-3,4-(—O—CH2—O—)-β-phenylalanine was detected | 0.2 | 3.9 | 27.8 | – | – | – |
| CC(=O)NC(CC(=O)O)c1cccnc1 (racemic) [N-acetyl-(R,S)-β-3-Pyr-Ala] | – | – | – | – | – | – | – | – | – | – | – | – | – | – | – | 3.5 | 8.4 | 0.8 |

Source: patent publication US7858348B2, “N-acetyl-(R,S)-beta-amino acid acylase gene” (Ajinomoto Co., Inc., priority 2006, dated 2010)
